Literature values as cited in US10449245B2 (priority 2014, dated 2019).

Test system: HIV-specific T cells
Conditions: IMiD present during stimulation with dendritic cells presenting Gag- or Nef-specific peptides; cited from earlier work

Row | SMILES | function of T-cells after in vitro stimulation
1 | Nc1cccc2c1CN(C1CCC(=O)NC1=O)C2=O (centres unmarked) [Lenalidomide] | a number of improvements in the function of the T-cells
2 | Nc1cccc2c1C(=O)N(C1CCC(=O)NC1=O)C2=O (centres unmarked) [pomalidomide] | a number of improvements in the function of the T-cells
